Test results taken from US20070161637A1, “Substituted pyridin-2-ylamine analogues” (Neurogen Corporation, priority 2003, published 2007).

Each molecule was assayed against T1, human capsaicin receptor (Homo sapiens, UniProt Q8NER1) (assay: Calcium mobilization assay, determination of antagonist activity (Example 6)). Conditions: concentration giving 50% decrease in the fluorescence response of cells expressing human capsaicin receptor exposed to capsaicin.
T1 construct: transfected with the pBK-CMV expression construct encoding the full length human capsaicin receptor; expressed in transfected cells; host or cells: HEK293, stably transfected clonal lines, plasmid pBK-CMV
T1 sequence (Q8NER1 whole entry): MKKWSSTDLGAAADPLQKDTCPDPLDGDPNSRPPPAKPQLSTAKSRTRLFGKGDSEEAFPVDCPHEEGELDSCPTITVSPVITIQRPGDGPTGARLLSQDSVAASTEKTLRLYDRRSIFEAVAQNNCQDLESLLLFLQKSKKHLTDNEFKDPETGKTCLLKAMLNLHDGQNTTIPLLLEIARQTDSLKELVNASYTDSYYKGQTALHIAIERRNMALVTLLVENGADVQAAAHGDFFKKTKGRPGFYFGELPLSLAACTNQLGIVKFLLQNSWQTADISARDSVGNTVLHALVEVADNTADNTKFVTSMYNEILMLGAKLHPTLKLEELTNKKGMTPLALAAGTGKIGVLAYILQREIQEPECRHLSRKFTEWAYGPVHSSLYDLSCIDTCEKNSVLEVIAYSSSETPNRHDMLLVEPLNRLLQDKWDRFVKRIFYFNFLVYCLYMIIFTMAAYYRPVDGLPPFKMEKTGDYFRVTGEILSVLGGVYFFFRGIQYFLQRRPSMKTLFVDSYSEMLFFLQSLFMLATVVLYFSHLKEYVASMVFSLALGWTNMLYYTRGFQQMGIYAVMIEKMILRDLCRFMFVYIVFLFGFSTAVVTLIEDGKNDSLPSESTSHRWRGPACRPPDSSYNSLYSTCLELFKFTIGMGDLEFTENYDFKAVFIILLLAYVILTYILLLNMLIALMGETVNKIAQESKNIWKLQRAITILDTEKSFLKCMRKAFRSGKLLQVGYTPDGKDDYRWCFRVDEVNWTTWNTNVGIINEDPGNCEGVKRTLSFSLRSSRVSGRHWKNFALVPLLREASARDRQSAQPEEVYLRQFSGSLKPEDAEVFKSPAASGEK
Type: cell-based
Experimental: A cDNA encoding full length human capsaicin receptor (SEQ ID NO:1, 2 or 3 of U.S. Pat. No. 6,482,611) was subcloned in the plasmid pBK-CMV (Stratagene, La Jolla, Calif.) for recombinant expression in mammalian cells.
Human embryonic kidney (HEK293) cells were transfected with the pBK-CMV expression construct encoding the full length human capsaicin receptor using standard methods. The transfected cells were selected for two weeks in media containing G418 (400 μg/ml) to obtain a pool of stably transfected cells. Independent clones were isolated from this pool by limiting dilution to obtain clonal stable cell lines for use in subsequent experiments.
Cells transfected with expression plasmids (as described in Example 4) and thereby expressing human capsaicin receptor are seeded and grown to 70-90% confluency in FALCON black-walled, clear-bottomed 96-well plates (#3904, BECTON-DICKINSON, Franklin Lakes, N.J.). The culture medium is emptied from the 96 well plates and FLUO-3 AM calcium sensitive dye (Molecular Probes, Eugene, Oreg.) is added to each well (dye solution: 1 mg FLUO-3 AM, 440 μL DMSO and 440 μl 20% pluronic acid in DMSO, diluted 1:250 in Krebs-Ringer HEPES (KRH) buffer (25 mM HEPES, 5 mM KCl, 0.96 mM NaH2PO4, 1 mM MgSO4, 2 mM CaCl2, 5 mM glucose, 1 mM probenecid, pH 7.4), 50 μl diluted solution per well). Plates are covered with aluminum foil and incubated at 37° C. for 1-2 hours in an environment containing 5% CO2. After the incubation, the dye is emptied from the plates, and the cells are washed once with KRH buffer, and resuspended in KRH buffer.
To measure the ability of a test compound to agonize or antagonize a calcium mobilization response in cells expressing capsaicin receptors to capsaicin or other vanilloid agonist, the EC50 of the agonist capsaicin is first determined. An additional 20 μl of KRH buffer and 1 μl DMSO is added to each well of cells, prepared as described above. 100 μl capsaicin in KRH buffer is automatically transferred by the FLIPR instrument to each well. Capsaicin-induced calcium mobilization is monitored using either FLUOROSKAN ASCENT (Labsystems; Franklin, Mass.) or FLIPR (fluorometric imaging plate reader system; Molecular Devices, Sunnyvale, Calif.) instruments. Data obtained between 30 and 60 seconds after agonist application are used to generate an 8-point concentration response curve, with final capsaicin concentrations of 1 nM to 3 μM. […] software (Synergy Software, Reading, Pa.) is used to fit the data to the equation: y=a*(1/(1+(b/x)^c)) to determine the 50% excitatory concentration (EC50) for the response. In this equation, y is the maximum fluorescence signal, x is the concentration of the agonist or antagonist (in this case, capsaicin), a is the Emax, b corresponds to the EC50 value and c is the Hill coefficient. Determination Agonist Activity
Test compounds are dissolved in DMSO, diluted in 20 μl KRH buffer so that the final concentration of test compounds in the assay well is between 1 μM and 5 μM, and added to cells prepared as described above. The 96 well plates containing prepared cells and test compounds are incubated in the dark, at room temperature for 0.5 to 6 hours. It is important that the incubation not continue beyond 6 hours. Just prior to determining the fluorescence response, 100 μl capsaicin in KRH buffer at twice the EC50 concentration determined as described above is automatically added by the FLIPR instrument to each well of the 96 well plate for a final sample volume of 200 μl and a final capsaicin concentration equal to the EC50. The final concentration of test compounds in the assay wells is between 1 μM and 5 μM.

Row | SMILES | IC50 [µM]
1 | CC(C)(C)c1ccc(Nc2nc(Cl)nc(NCc3ccccc3F)n2)cc1 [Compound 34, N-(4-tert-Butyl-phenyl)-6-chloro-N′-(2-fluoro-benzyl)-[1,3,5]triazine-2,4-diamine] | ≤ 1
2 | CC(C)(C)c1ccc(Nc2nc(OCc3ccccc3Cl)nc(OCc3ccccc3Cl)n2)cc1 [Compound 11, [4,6-Bis-(2-chloro-benzyloxy)-[1,3,5]triazin-2-yl]-(4-tert-butyl-phenyl)-amine] | ≤ 1
3 | CC(C)(C)c1ccc(Nc2nc(N)nc(NCc3ccccc3Cl)n2)cc1 [Compound 37, N-(4-tert-Butyl-phenyl)-N′-(2-chloro-benzyl)-[1,3,5]triazine-2,4,6-triamine] | ≤ 1
4 | CC(C)(C)c1ccc(Nc2nc(N)nc(NCc3ccccc3F)n2)cc1 [Compound 43, N-(4-tert-Butyl-phenyl)-N′-(2-fluoro-benzyl)-[1,3,5]triazine-2,4,6-triamine] | ≤ 1
5 | CC(C)Nc1nc(Nc2ccc(C(F)(F)F)cc2)nc(OCc2ccccc2C(F)(F)F)n1 [Compound 67, N-Isopropyl-6-(2-trifluoromethyl-benzyloxy)-N′-(4-trifluoromethyl-phenyl)-[1,3,5]triazine-2,4-diamine] | ≤ 1
6 | COc1ccccc1CNc1nc(NCc2ccccc2OC)nc(Nc2ccc(C(C)(C)C)cc2)n1 [Compound 55, N-(4-tert-Butyl-phenyl)-N′,N″-bis-(2-methoxy-benzyl)-[1,3,5]triazine-2,4,6-triamine] | ≤ 1
7 | CC(C)(C)c1ccc(Nc2nc(OCc3ncccc3Cl)nc(OCc3ncccc3Cl)n2)cc1 [Compound 16, [4,6-Bis-(3-chloro-pyridin-2-ylmethoxy)-[1,3,5]triazin-2-yl]-(4-tert-butyl-phenyl)-amine] | ≤ 1
8 | COc1nc(NCc2ccccc2Cl)nc(Nc2ccc(C(C)(C)C)cc2)n1 [Compound 39, N-(4-tert-Butyl-phenyl)-N′-(2-chloro-benzyl)-6-methoxy-[1,3,5]triazine-2,4-diamine] | ≤ 1
9 | Cc1nc(NCc2ccccc2Cl)nc(Nc2ccc(C(C)(C)C)cc2)n1 [Compound 40, N-(4-tert-Butyl-phenyl)-N′-(2-chloro-benzyl)-6-methyl-[1,3,5]triazine-2,4-diamine] | ≤ 1
10 | CC(C)(C)c1ccc(Nc2nc(Cl)nc(NCc3ccccc3Cl)n2)cc1 [Compound 33, N-(4-tert-Butyl-phenyl)-6-chloro-N′-(2-chloro-benzyl)-[1,3,5]triazine-2,4-diamine] | ≤ 1
11 | CCOc1nc(NCc2ccccc2Cl)nc(Nc2ccc(C(C)(C)C)cc2)n1 [Compound 38, N-(4-tert-Butyl-phenyl)-N′-(2-chloro-benzyl)-6-ethoxy-[1,3,5]triazine-2,4-diamine] | ≤ 1
12 | CC(C)(C)c1ccc(Nc2nc(Cl)nc(OCc3ccccc3C(F)(F)F)n2)cc1 [Compound 4, (4-tert-Butyl-phenyl)-[4-chloro-6-(2-trifluoromethyl-benzyloxy)-[1,3,5]triazin-2-yl]-amine] | ≤ 1
13 | CC(C)(C)c1ccc(Nc2nc(OCc3ccccc3F)nc(OCc3ccccc3F)n2)cc1 [Compound 12, [4,6-Bis-(2-fluoro-benzyloxy)-[1,3,5]triazin-2-yl]-(4-tert-butyl-phenyl)-amine] | ≤ 1
14 | CC(C)(C)c1ccc(Nc2cc(NCc3cccc(F)c3)ncn2)cc1 [Compound 50, N-(4-tert-Butyl-phenyl)-N′-(3-fluoro-benzyl)-pyrimidine-4,6-diamine] | ≤ 1
15 | FC(F)(F)c1ccc(Nc2nc(OCc3ccccc3C(F)(F)F)nc(OC3CCCC3)n2)cc1 [Compound 19, [4-Cyclopentyloxy-6-(2-trifluoromethyl-benzyloxy)-[1,3,5]triazin-2-yl]-(4-trifluoromethyl-phenyl)-amine] | ≤ 1
16 | COc1ccccc1CNc1nc(N)nc(Nc2ccc(C(C)(C)C)cc2)n1 [Compound 46, N-(4-tert-Butyl-phenyl)-N′-(2-methoxy-benzyl)-[1,3,5]triazine-2,4,6-triamine] | ≤ 1
17 | CC(C)(C)c1ccc(Nc2nc(N)nc(OCc3ccccc3F)n2)cc1 [Compound 31, N-(4-tert-Butyl-phenyl)-6-(2-fluoro-benzyloxy)-[1,3,5]triazine-2,4-diamine] | ≤ 1
18 | CC(C)CCNc1nc(Nc2ccc(C(F)(F)F)cc2)nc(OCc2ccccc2C(F)(F)F)n1 [Compound 29, N-(3-Methyl-butyl)-6-(2-trifluoromethyl-benzyloxy)-N′-(4-trifluoromethyl-phenyl)-[1,3,5]triazine-2,4-diamine] | ≤ 1
19 | CC(C)(C)c1ccc(Nc2nc(Cl)nc(N3CCc4ccccc4C3)n2)cc1 [Compound 5, (4-tert-Butyl-phenyl)-[4-chloro-6-(3,4-dihydro-1H-isoquinolin-2-yl)-[1,3,5]triazin-2-yl]-amine] | ≤ 1
20 | CC(C)(C)c1ccc(Nc2nc(Cl)nc(NCc3ccccc3C(F)(F)F)n2)cc1 [Compound 36, N-(4-tert-Butyl-phenyl)-6-chloro-N′-(2-trifluoromethyl-benzyl)-[1,3,5]triazine-2,4-diamine] | ≤ 1
21 | CC(C)(C)c1ccc(Nc2nc(N)nc(OCc3ccccc3Cl)n2)cc1 [Compound 30, N-(4-tert-Butyl-phenyl)-6-(2-chloro-benzyloxy)-[1,3,5]triazine-2,4-diamine] | ≤ 1
22 | CC(C)(C)Nc1nc(Nc2ccc(C(F)(F)F)cc2)nc(OCc2ccccc2C(F)(F)F)n1 [Compound 68, N-tert-Butyl-6-(2-trifluoromethyl-benzyloxy)-N′-(4-trifluoromethyl-phenyl)-[1,3,5]triazine-2,4-diamine] | ≤ 1
23 | COc1ccccc1CNc1cc(Nc2ccc(C(C)(C)C)cc2)ncn1 [Compound 47, N-(4-tert-Butyl-phenyl)-N′-(2-methoxy-benzyl)-pyrimidine-4,6-diamine] | ≤ 1
24 | FC(F)(F)c1ccc(Nc2nc(OCc3ccccc3C(F)(F)F)nc(-c3ccccc3C(F)(F)F)n2)cc1 [Compound 10, [4-(2-Trifluoromethyl-benzyloxy)-6-(2-trifluoromethyl-phenyl)-[1,3,5]triazin-2-yl]-(4-trifluoromethyl-phenyl)-amine] | ≤ 1
25 | CC(C)(C)c1ccc(Nc2cc(NCc3ccc(Cl)cc3)ncn2)cc1 [Compound 52, N-(4-tert-Butyl-phenyl)-N′-(4-chloro-benzyl)-pyrimidine-4,6-diamine] | ≤ 1
26 | CC(C)(C)c1ccc(Nc2nc(OCc3ccccn3)nc(OCc3ccccn3)n2)cc1 [Compound 17, [4,6-Bis-(pyridin-2-ylmethoxy)-[1,3,5]triazin-2-yl]-(4-tert-butyl-phenyl)-amine] | ≤ 1
27 | FC(F)(F)c1ccc(Nc2nc(OCc3ccccc3C(F)(F)F)nc(-c3cccnc3)n2)cc1 [Compound 23, [4-Pyridin-3-yl-6-(2-trifluoromethyl-benzyloxy)-[1,3,5]triazin-2-yl]-(4-trifluoromethyl-phenyl)-amine] | ≤ 1
28 | COc1ccccc1CNc1ncnc(Nc2ccc(C(C)(C)C)cc2)n1 [Compound 45, N-(4-tert-Butyl-phenyl)-N′-(2-methoxy-benzyl)-[1,3,5]triazine-2,4-diamine] | ≤ 1
29 | CC(C)(C)c1ccc(Nc2cc(NCc3ccccc3Cl)ncn2)cc1 [Compound 42, N-(4-tert-Butyl-phenyl)-N′-(2-chloro-benzyl)-pyrimidine-4,6-diamine] | ≤ 1
30 | CN1CCN(c2nc(Nc3ccc(C(C)(C)C)cc3)nc(OCc3ccccc3C(F)(F)F)n2)CC1 [Compound 1, (4-tert-Butyl-phenyl)-[4-(4-methyl-piperazin-1-yl)-6-(2-trifluoromethyl-benzyloxy)-[1,3,5]triazine-2-yl]-amine] | ≤ 1
